From patent US7396837B2, “Antitumoral analogs of lamellarins” (Pharma Mar, S.A.U., priority 2002, dated 2008)
Read-outs that look alike come from different tables or passages of the source.

How the values were obtained:
Type in all cases: cell-based
IGROV-ET = test: SRB colorimetric cell growth inhibition assay, IGROV-ET (ET-743 resistant); settings: Homo sapiens, IGROV-ET; for GI50: GI=growth inhibition, read-out: GI50 IGROV-ET; for CC50: read-out: LC50 IGROV-ET; for IC (TGI): read-out: TGI IGROV-ET
In short: (§1)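 Tested samples remained on human cancer cell cultures throughout the incubation; viable biomass was then stained with SRB and read colorimetrically.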

LNCaP = test: SRB colorimetric cell growth inhibition assay, LNCaP; settings: Homo sapiens, LNCaP, LN-caP; for GI50: GI=growth inhibition, read-out: GI50 LN-caP; for CC50: read-out: LC50 LN-caP; for IC (TGI): read-out: TGI LN-caP
Text: (§2) The finality of these assays is to interrupt the growth of an “in vitro” tumor cell culture by means a continued exhibition of the cells to the sample to be testing.
(§3) A colorimetric type of assay, using sulforhodamine B (SRB) reaction has been adapted for a quantitative measurement of cell growth and viability (following the technique described by P. A. Skehan, et al., J. Natl. Cancer Inst. 1990, 82, 1107-1112).
(§4) This form of assay employs 96 well cell culture microplates of 9 mm diameter (T. Mosmann et al., J. of Immunological Methods 1983, 65, 55-63; G. T. Faircloth et al., J. of Tissue and Culture Methods 1988, 11, 201-205).
(§5) Most of the cell lines are obtained from American Type Culture Collection (ATCC) derived from different human cancer types.
(§6) The values for mean +/− SD of data from triplicate wells are calculated. Some parameters for cellular responses can be calculated: GI=growth inhibition, TGI=total growth inhibition (cytostatic effect) and LC=cell killing (cytotoxic effect).

HT-29 = test: SRB colorimetric cell growth inhibition assay, HT-29; settings: Homo sapiens, HT-29, HT-29; for GI50: GI=growth inhibition, read-out: GI50 HT-29; for CC50: read-out: LC50 HT-29; for IC (TGI): read-out: TGI HT-29
In short: as §1

IGROV = test: SRB colorimetric cell growth inhibition assay, IGROV; settings: Homo sapiens, IGROV; for GI50: GI=growth inhibition, read-out: GI50 IGROV; for CC50: read-out: LC50 IGROV; for IC (TGI): read-out: TGI IGROV
In short: as §1

PANC-1 = test: SRB colorimetric cell growth inhibition assay, PANC-1; settings: Homo sapiens, PANC-1, PANC-1; for GI50: GI=growth inhibition, read-out: GI50 PANC-1; for CC50: read-out: LC50 PANC-1; for IC (TGI): read-out: TGI PANC-1
In short: as §1

LoVo-Dox = test: SRB colorimetric cell growth inhibition assay, LoVo-Dox (MDR); settings: Homo sapiens, LOVO-DOX; for GI50: GI=growth inhibition, read-out: GI50 LOVO-DOX; for CC50: read-out: LC50 LOVO-DOX; for IC (TGI): read-out: TGI LOVO-DOX
In short: as §1

SK-MEL-28 = test: SRB colorimetric cell growth inhibition assay, SK-MEL-28; settings: Homo sapiens, SK-MEL-28, MEL-28; for GI50: GI=growth inhibition, read-out: GI50 MEL-28; for CC50: read-out: LC50 MEL-28; for IC (TGI): read-out: TGI MEL-28
In short: as §1

DU-145 = test: SRB colorimetric cell growth inhibition assay, DU-145; settings: Homo sapiens, DU-145, DU-145; for GI50: GI=growth inhibition, read-out: GI50 DU-145; for CC50: read-out: LC50 DU-145; for IC (TGI): read-out: TGI DU-145
In short: as §1

HeLa = test: SRB colorimetric cell growth inhibition assay, HeLa; settings: Homo sapiens, HeLa; for GI50: GI=growth inhibition, read-out: GI50 HELA; for CC50: read-out: LC50 HELA; for IC (TGI): read-out: TGI HELA
In short: as §1

LoVo = test: SRB colorimetric cell growth inhibition assay, LoVo; settings: Homo sapiens, LoVo; for GI50: GI=growth inhibition, read-out: GI50 LOVO; for CC50: read-out: LC50 LOVO; for IC (TGI): read-out: TGI LOVO
In short: as §1

SK-BR-3 = test: SRB colorimetric cell growth inhibition assay, SK-BR-3; settings: Homo sapiens, SK-BR-3, SK-BR-3; for GI50: GI=growth inhibition, read-out: GI50 SK-BR-3; for CC50: read-out: LC50 SK-BR-3; for IC (TGI): read-out: TGI SK-BR-3
In short: as §1

K-562 = test: SRB colorimetric cell growth inhibition assay, K-562; settings: Homo sapiens, K562, K-562; for GI50: GI=growth inhibition, read-out: GI50 K-562; for CC50: read-out: LC50 K-562; for IC (TGI): read-out: TGI K-562
Text: as §2, §3, §4, §5, §6

HeLa-APL = test: SRB colorimetric cell growth inhibition assay, HeLa-APL (aplidine resistant); settings: Homo sapiens, HELA-APL; for GI50: GI=growth inhibition, read-out: GI50 HELA-APL; for CC50: read-out: LC50 HELA-APL; for IC (TGI): read-out: TGI HELA-APL
In short: as §1

A-549 = test: SRB colorimetric cell growth inhibition assay, A-549; settings: Homo sapiens, A549, A-549; for GI50: GI=growth inhibition, read-out: GI50 A-549; for CC50: read-out: LC50 A-549; for IC (TGI): read-out: TGI A-549
In short: as §1

[1] = cell killing (cytotoxic effect)
[2] = total growth inhibition (cytostatic effect)
[3] = LC=cell killing (cytotoxic effect)
[4] = TGI=total growth inhibition (cytostatic effect)

COc1cc2c(cc1O)oc(=O)c1c2c(-c2cccc([N+](=O)[O-])c2)c2c3cc(OC)c(O)cc3ccn21 [Compound 221]
GI50 (IGROV-ET): 0.0648 µM
CC50 (IGROV-ET; [1]): 20.1 µM
IC (TGI) (IGROV-ET; [2]): 20.1 µM
GI50 (LNCaP): 0.0722 µM
CC50 (LNCaP; [1]): 20.1 µM
IC (TGI) (LNCaP; [2]): 5.02 µM
GI50 (HT-29): 20.1 µM
CC50 (HT-29; [1]): 20.1 µM
IC (TGI) (HT-29; [2]): 20.1 µM
GI50 (IGROV): 0.0819 µM
CC50 (IGROV; [1]): 20.1 µM
IC (TGI) (IGROV; [2]): 20.1 µM
GI50 (PANC-1): 0.0786 µM
CC50 (PANC-1; [1]): 20.1 µM
IC (TGI) (PANC-1; [2]): 20.1 µM
GI50 (LoVo-Dox): 2.83 µM
CC50 (LoVo-Dox; [1]): 20.1 µM
IC (TGI) (LoVo-Dox; [2]): 14.2 µM
GI50 (SK-MEL-28): 0.106 µM
CC50 (SK-MEL-28; [1]): 20.1 µM
IC (TGI) (SK-MEL-28; [2]): 20.1 µM
GI50 (DU-145): 0.0431 µM
CC50 (DU-145; [1]): 20.1 µM
IC (TGI) (DU-145; [2]): 0.257 µM
GI50 (HeLa): 0.0564 µM
CC50 (HeLa; [1]): 20.1 µM
IC (TGI) (HeLa; [2]): 20.1 µM
GI50 (LoVo): 2.41 µM
CC50 (LoVo; [1]): 15.9 µM
IC (TGI) (LoVo; [2]): 6.2 µM
GI50 (SK-BR-3): 1.53 µM
CC50 (SK-BR-3; [1]): 20.1 µM
IC (TGI) (SK-BR-3; [2]): 12.9 µM
GI50 (K-562): 0.0883 µM
CC50 (K-562; [1]): 20.1 µM
IC (TGI) (K-562; [2]): 20.1 µM
GI50 (HeLa-APL): 0.0796 µM
CC50 (HeLa-APL; [1]): 20.1 µM
IC (TGI) (HeLa-APL; [2]): 20.1 µM
GI50 (A-549): 0.0802 µM
CC50 (A-549; [1]): 20.1 µM
IC (TGI) (A-549; [2]): 20.1 µM

COc1cc(-c2c3n(c4c(=O)oc5cc(N)c(OC)cc5c24)CCc2cc(OC)c(OC)cc2-3)ccc1N [Compound 57]
GI50 (IGROV-ET): 0.89 µM
CC50 (IGROV-ET; [3]): 19.5 µM
IC (TGI) (IGROV-ET; [4]): 6.43 µM
GI50 (LNCaP): 2.16 µM
CC50 (LNCaP; [3]): 13.9 µM
IC (TGI) (LNCaP; [4]): 5.47 µM
GI50 (HT-29): 3.49 µM
CC50 (HT-29; [3]): 19.5 µM
IC (TGI) (HT-29; [4]): 19.5 µM
GI50 (IGROV): 0.847 µM
CC50 (IGROV; [3]): 19.5 µM
IC (TGI) (IGROV; [4]): 5.88 µM
GI50 (PANC-1): 0.611 µM
CC50 (PANC-1; [3]): 19.5 µM
IC (TGI) (PANC-1; [4]): 9.7 µM
GI50 (LoVo-Dox): 0.828 µM
CC50 (LoVo-Dox; [3]): 19.5 µM
IC (TGI) (LoVo-Dox; [4]): 6.91 µM
GI50 (SK-MEL-28): 1.68 µM
CC50 (SK-MEL-28; [3]): 19.5 µM
IC (TGI) (SK-MEL-28; [4]): 12.6 µM
GI50 (DU-145): 3.89 µM
CC50 (DU-145; [3]): 19.5 µM
IC (TGI) (DU-145; [4]): 12.2 µM
GI50 (HeLa): 0.685 µM
CC50 (HeLa; [3]): 19.5 µM
IC (TGI) (HeLa; [4]): 5.67 µM
GI50 (LoVo): 0.717 µM
CC50 (LoVo; [3]): 19.5 µM
IC (TGI) (LoVo; [4]): 5.3 µM
GI50 (SK-BR-3): 0.317 µM
CC50 (SK-BR-3; [3]): 19.5 µM
IC (TGI) (SK-BR-3; [4]): 5.24 µM
GI50 (K-562): 2.69 µM
CC50 (K-562; [3]): 19.5 µM
IC (TGI) (K-562; [4]): 19.5 µM
GI50 (HeLa-APL): 3.68 µM
CC50 (HeLa-APL; [3]): 19.5 µM
IC (TGI) (HeLa-APL; [4]): 11 µM
GI50 (A-549): 1.29 µM
CC50 (A-549; [3]): 19.5 µM
IC (TGI) (A-549; [4]): 19.5 µM

COc1cc(-c2c3c4cc(OC)c(O)cc4oc(=O)c3n3ccc4c(N)cccc4c23)ccc1O [Compound 182]
GI50 (IGROV-ET): 3.16 µM
CC50 (IGROV-ET; [1]): 21.3 µM
IC (TGI) (IGROV-ET; [2]): 21.3 µM
GI50 (LNCaP): 1.75 µM
CC50 (LNCaP; [1]): 21.3 µM
IC (TGI) (LNCaP; [2]): 21.3 µM
GI50 (HT-29): 21.3 µM
CC50 (HT-29; [1]): 21.3 µM
IC (TGI) (HT-29; [2]): 21.3 µM
GI50 (IGROV): 2.86 µM
CC50 (IGROV; [1]): 21.3 µM
IC (TGI) (IGROV; [2]): 21.3 µM
GI50 (PANC-1): 4.85 µM
CC50 (PANC-1; [1]): 21.3 µM
IC (TGI) (PANC-1; [2]): 21.3 µM
GI50 (LoVo-Dox): 1.21 µM
CC50 (LoVo-Dox; [1]): 21.3 µM
IC (TGI) (LoVo-Dox; [2]): 21.3 µM
GI50 (SK-MEL-28): 1.08 µM
CC50 (SK-MEL-28; [1]): 21.3 µM
IC (TGI) (SK-MEL-28; [2]): 21.3 µM
GI50 (DU-145): 1.08 µM
CC50 (DU-145; [1]): 21.3 µM
IC (TGI) (DU-145; [2]): 21.3 µM
GI50 (HeLa): 8.52 µM
CC50 (HeLa; [1]): 21.3 µM
IC (TGI) (HeLa; [2]): 21.3 µM
GI50 (LoVo): 21.3 µM
CC50 (LoVo; [1]): 21.3 µM
IC (TGI) (LoVo; [2]): 21.3 µM
GI50 (SK-BR-3): 0.365 µM
CC50 (SK-BR-3; [1]): 12 µM
IC (TGI) (SK-BR-3; [2]): 1.25 µM
GI50 (K-562): 0.316 µM
CC50 (K-562; [1]): 21.3 µM
IC (TGI) (K-562; [2]): 4.85 µM
GI50 (HeLa-APL): 4.46 µM
CC50 (HeLa-APL; [1]): 21.3 µM
IC (TGI) (HeLa-APL; [2]): 21.3 µM
GI50 (A-549): 9.58 µM
CC50 (A-549; [1]): 21.3 µM
IC (TGI) (A-549; [2]): 21.3 µM
